Experimental data: PMC8957602 (Cancer chemotherapy and pharmacology, 2022)
Several values for one entry are separate records, joined by “and”; a condition that tells them apart may be missing. Equal values may be shown once. Read-outs that look alike come from different tables or passages of the source.

Tests used:
CYP3A4 = settings: ref [31]; cited from earlier work
[1] = for AUC(0-t) / clearance: human, serum, oral; for AUC(0-t): 170 mg/m2, Steady state AUC0–24h, after 170 mg/m^2; for clearance: Mean clearance
[2] = ref [18], cited from earlier work
[3] = assay type: in vivo, human; settings: despite increased exposure with acid reducer co-treatment
[4] = tested on: human cytochrome CYP3A enzyme family; settings: in vitro; ref unpublished in vitro data; cited from earlier work
[5] = described as weak acid drug; cited from earlier work
[6] = ref [11], cited from earlier work
[7] = adults with FLT3 mutant AML, ref [26], cited from earlier work
[8] = before including any covariates
[9] = before inclusion of significant covariates
[10] = final model with covariates, Estimate (RSE%)
[11] = final model, standard deviation, Estimate (RSE%)
[12] = standard deviation, 500 bootstrap replicates

## COc1ccc2[nH]c([S+]([O-])Cc3ncc(C)c(OC)c3C)nc2c1 (stereo not shown) [omeprazole]
CYP3A4
  CYP3A4 inhibition: weak CYP3A4 inhibitors

## COc1ccnc(C[S+]([O-])c2nc3ccc(OC(F)F)cc3[nH]2)c1OC (stereo not shown) [pantoprazole]
CYP3A4
  CYP3A4 inhibition: weak CYP3A4 inhibitors

## CNC(=C[N+](=O)[O-])NCCSCc1ccc(CN(C)C)o1 [ranitidine]
CYP3A4
  CYP3A4 inhibition: weak CYP3A4 inhibitors

## CC1(COc2ccc3c(c2)ncn3-c2ccc3cccc(N4CCC(N)CC4)c3n2)COC1 [crenolanib]
[1]; 500 bootstrap replicates
  AR coefficient on V1/F βAR-V, non-parametric bootstraps mean: −0.477
  Absorption lag time Tlag, non-parametric bootstraps mean: 0.547 h
  Absorption rate constant ka, non-parametric bootstraps mean: 0.192 h⁻¹
  Age coefficient on ka βAge, non-parametric bootstraps mean: −0.0403
  Central clearance CL/F, non-parametric bootstraps mean: 42.0 L/h
  Central volume V1/F, non-parametric bootstraps mean: 54.0 L
  Peripheral volume V2/F, non-parametric bootstraps mean: 194 L
  Residual proportional error, non-parametric bootstraps mean: 0.306
[1]; [8]
  CL/F population estimate: 20.4 L/h
  Q/F population estimate: 4.47 L/h
  Tlag population estimate: 0.59 h
  V1/F population estimate: 34.6 L
  V2/F population estimate: 316 L
  ka population estimate: 0.13 h⁻¹
[1]; [9]
  Inter-occasion variability of CL/F: 0.568
  Inter-occasion variability of V1/F: 0.956
[1]; [10]
  Absorption lag time Tlag, population estimate: 0.525 (14.4) h
  Absorption rate constant ka, population estimate: 0.191 (10.4) /h
[1]; final model, Estimate (RSE%)
  Peripheral volume V2/F, population estimate: 412 (86.7) L
  Residual proportional error: 0.304 (4.44)
[1]; final model, acid reducer concomitant treatment, Estimate (RSE%)
  AR coefficient on V1/F βAR-V: −0.516 (42.3)
[1]; final model, exponential model, Estimate (RSE%)
  Age coefficient on ka βAge: −0.0404 (20.5)
[1]; [11]
  Inter-occasion variability (IOV) of absorption lag time Tlag: 0.645 (18.3)
  Inter-patient variability (IIV) of absorption lag time Tlag: 0.524 (27.7)
  Inter-patient variability (IIV) of peripheral clearance Q/F: 0.536 (20.2)
[1]; final model, typical patient, no acid reducer, Estimate (RSE%)
  Central volume V1/F, population estimate: 54.3 L and 54.3 (18.4) L
[1]; histamine H2 antagonists or proton pump inhibitors, p=0.018
  Lower V1/F in patients receiving concomitant acid reducers: ~1.7 fold
[1]; mean
  AUC(0-t): 20.7 µM·h
[1]; range
  AUC(0-t): 9.48 to 68.5 µM·h
[1]; all patients
  clearance: 642 mL/min
[1]; with acid reducers
  clearance: 435 mL/min
[1]; without acid reducers
  clearance: 980 mL/min
[1]; in vivo
  Accumulation at steady state: minimal accumulation
[1]; [12]
  IIV of absorption lag time Tlag, non-parametric bootstraps mean: 0.496
  IIV of absorption rate constant ka, non-parametric bootstraps mean: 0.091
  IIV of central volume V1/F, non-parametric bootstraps mean: 0.182
  IOV of absorption lag time Tlag, non-parametric bootstraps mean: 0.591
  IOV of central volume V1/F, non-parametric bootstraps mean: 0.860
[2]; oral once daily
  Maximum tolerated dosage: 170 mg/m^2/d
[2]
  Association of higher AUC with toxicities: not associated with more frequent or severe toxicities
[3]
  Tolerability of therapy: well-tolerated
[4]
  Metabolizing enzyme: primarily metabolized by human cytochrome CYP3A enzyme family
[5]
  pKa: ~ 9.8
[6]; adults with solid tumors, 100–340 mg once daily, similar across all dose levels, [15]
  Terminal half-life: 14 ± 4.2 h
[6]; adults, 280 mg once daily (approx. 168 mg/m^2)
  Mean (CV%) steady state AUC0–72h: 25,928 (92%) h·nM
[6]; adults, 100–340 mg once daily, [15]
  Tolerability: well tolerated
[7]; similar between day 1 and day 15
  Mean clearance: ~ 60 L/h
[7]
  Drug accumulation after repeated doses: minimal drug accumulation
  Terminal half-life: 6.8 h
